In US4318925A (priority 1977, dated 1982):
Where a name gives a salt, the structure may show the parent alone. Read-outs that look alike come from different tables or passages of the source.

Experiments:
in vitro = settings: human, kb cells
Influenza AoPR/8 = type: in vivo, ddY male mice; settings: subcutaneous, from 3 hours pre to 150 hours post infection, LLS 7 days after infection, Control (0 mg/kg) 4.8
Newcastle diseases virus = settings: Koji Aigami et al., J. of Medicinal Chemistry, Vol. 19, 536 (1976); cited from earlier work
influenza viruses = settings: British Pat. No. 1,063,366; SCIENCE, Vol. 144, 862, (1964); cited from earlier work

Row | Compound | MCC at 72 h (in vitro) [µg/mL] | Lung Lesion Score (Influenza AoPR/8; 15 mg/kg) | also measured
1 | CCOCC(=O)NC12CCCC3CC(CCC31)C2 (centres unmarked) [N-[3-(4-homoisotwistyl)]-2-ethoxyacetamide] | 25 |  | 
2 | CN(C)CCOCC(=O)NC12CCCC3CC(CCC31)C2 (centres unmarked) [N-[3-(4-homoisotwistyl)]-2-(2-dimethylaminoethoxy)-acetamide hydrochloride] | 250 | 4.33 | 
3 | NC12CCCC3CC(CCC31)C2 (centres unmarked) [3-amino-4-homoisotwistane hydrochloride] |  |  | antiviral activity against Newcastle diseases virus (Newcastle diseases virus): have antiviral activity against Newcastle diseases virus
4 | NC12CC3CC(CC(C3)C1)C2 [1-adamantanamine] |  |  | antiviral activity against influenza viruses (influenza viruses): show antiviral against influenza viruses
5 | NC12CC3CC(CC(C3)C1)C2 [Amantadine hydrochloride, reference compound] | > 50 |  | Lung Lesion Score (Influenza AoPR/8; 10 mg/kg): 4.3
6 | CCCCCOCC(=O)NC12CCCC3CC(CCC31)C2 (centres unmarked) [N-[3-(4-homoisotwistyl)]-2-pentyloxyacetamide] | 5 |  | 
7 | CCCCCCCCCCCOCC(=O)NC12CCCC3CC(CCC31)C2 (centres unmarked) [N-[3-(4-homoisotwistyl)]-2-undecyloxyacetamide] | 10 |  | 
8 | O=C(COc1ccccc1)NC12CCCC3CC(CCC31)C2 (centres unmarked) [N-[3-(4-homoisotwistyl)]-2-phenoxyacetamide] |  | 4.35 | 
9 | CN(C)CCOCC(=O)N(C)C12CCCC3CC(CCC31)C2 (centres unmarked) [N-methyl, N-[3-(4-homoisotwistyl)]-2-(2-dimethylaminoethoxy) acetamide hydrochloride] |  | 4.50 | 
